Legend:
[1] = system: normal NK cells expanded with K562-aAPC; experiment: percent inhibition of viability; higher = more inhibition; conditions: 72 h, IL-2 2.5 ng/mL
Experimental: (§1)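 Drug sensitivity and resistance testing on K562-aAPC-expanded normal NK cells: 5 concentrations (10-fold steps over a 10,000-fold range), 72 h at 37 °C, viability by CellTiter-Glo normalised to DMSO and benzethonium chloride controls; DSS from the fitted curve.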

DERL-7 (IL-2 2.5 ng/mL) [2] = experiment: as above; conditions: 72 h
IMC-1 (IL-2 20 ng/mL) [3] = experiment: as above; conditions: 72 h
KAI3 (IL-2 2.5 ng/mL) [4] = experiment: as above; conditions: 72 h
KHYG-1 (IL-2 2.5 ng/mL) [5] = experiment: as above; conditions: 72 h
NK-92 (IL-2 2.5 ng/mL) [6] = experiment: as above; conditions: 72 h
NK-YS (IL-2 2.5 ng/mL) [7] = experiment: as above; conditions: 72 h
NKL (IL-2 2.5 ng/mL) [8] = experiment: as above; conditions: 72 h
SNK-6 (IL-2 2.5 ng/mL) [9] = experiment: as above; conditions: 72 h
YT (IL-2 2.5 ng/mL) [10] = experiment: as above; conditions: 72 h
[11] = system: normal primary NK cells, pool 1 (3 donors) (IL-2 2.5 ng/mL); experiment: as above; conditions: 72 h
[12] = system: normal primary NK cells, pool 1 (3 donors), resting (IL-2 0 ng/mL); experiment: as above; conditions: 72 h
[13] = system: normal primary NK cells, pool 2 (3 donors) (IL-2 2.5 ng/mL); experiment: as above; conditions: 72 h
[14] = system: normal primary NK cells, pool 3 (3 donors) (IL-2 2.5 ng/mL); experiment: as above; conditions: 72 h
[15] = system: normal NK cells expanded with K562-aAPC; experiment: drug sensitivity score (DSS) (DSS units); higher = more sensitive; extreme values may be limits of the assay; conditions: 72 h; IL-2 2.5 ng/mL
Experimental: as §1

DERL-7 (IL-2 2.5 ng/mL) [16] = experiment: as above; conditions: 72 h
IMC-1 (IL-2 20 ng/mL) [17] = experiment: as above; conditions: 72 h
KAI3 (IL-2 2.5 ng/mL) [18] = experiment: as above; conditions: 72 h
KHYG-1 (IL-2 2.5 ng/mL) [19] = experiment: as above; conditions: 72 h
NK-92 (IL-2 2.5 ng/mL) [20] = experiment: as above; conditions: 72 h
NK-YS (IL-2 2.5 ng/mL) [21] = experiment: as above; conditions: 72 h
NKL (IL-2 2.5 ng/mL) [22] = experiment: as above; conditions: 72 h
SNK-6 (IL-2 2.5 ng/mL) [23] = experiment: as above; conditions: 72 h
YT (IL-2 2.5 ng/mL) [24] = experiment: as above; conditions: 72 h
[25] = system: normal primary NK cells, pool 1 (3 donors) (IL-2 2.5 ng/mL); experiment: as above; conditions: 72 h
[26] = system: normal primary NK cells, pool 1 (3 donors), resting (IL-2 0 ng/mL); experiment: as above; conditions: 72 h
[27] = system: normal primary NK cells, pool 2 (3 donors) (IL-2 2.5 ng/mL); experiment: as above; conditions: 72 h
[28] = system: normal primary NK cells, pool 3 (3 donors) (IL-2 2.5 ng/mL); experiment: as above; conditions: 72 h

CC(C)[C@H]1C(=O)N[C@@H](CCCNC(=N)N)C(=O)NCC(=O)N[C@@H](CC(=O)O)C(=O)N[C@H](Cc2ccccc2)C(=O)N1C [Cilengitide] (max concentration tested 10000 nM)
percent inhibition of viability [%]
Conditions | 1 nM | 10 nM | 100 nM | 1000 nM | 10000 nM
DERL-7 (IL-2 2.5 ng/mL) [2] | 1.94 | -0.89 | 5.16 | -1.67 | 1.74
IMC-1 (IL-2 20 ng/mL) [3] | -4.13 | -2.67 | -2.6 | -4.07 | -10
KAI3 (IL-2 2.5 ng/mL) [4] | 0.99 | -4.51 | 0.53 | -7.41 | -4.2
KHYG-1 (IL-2 2.5 ng/mL) [5] | -4.74 | -8.58 | -8.46 | -5.89 | -5.46
NK-92 (IL-2 2.5 ng/mL) [6] | -6.89 | -15.6 | -2.78 | -19.4 | -3.46
NK-YS (IL-2 2.5 ng/mL) [7] | 3.77 | -3.77 | -3.08 | -1.52 | -1.33
NKL (IL-2 2.5 ng/mL) [8] | -5.73 | -8.69 | -8.49 | -3.48 | -5.17
SNK-6 (IL-2 2.5 ng/mL) [9] | 5.33 | -1.64 | -18.7 | -5.25 | -3.56
YT (IL-2 2.5 ng/mL) [10] | -3.44 | -9.37 | -2 | -8.27 | -2.28
[1] | -8.83 | -11.2 | -7.88 | -10.2 | -11.3
[11] | -11.5 | -10.7 | -11.7 | -4.42 | -5.41
[12] | -16.2 | -13.2 | -18.2 | -14 | -17.6
[13] | -8.85 | -4.43 | -5.82 | -9.18 | -7.87
[14] | -10.7 | -5.35 | -6.3 | -9.92 | -10.2

Conditions | drug sensitivity score
DERL-7 (IL-2 2.5 ng/mL) [16] | 0
IMC-1 (IL-2 20 ng/mL) [17] | 0
KAI3 (IL-2 2.5 ng/mL) [18] | 0
KHYG-1 (IL-2 2.5 ng/mL) [19] | 0
NK-92 (IL-2 2.5 ng/mL) [20] | 0
NK-YS (IL-2 2.5 ng/mL) [21] | 0
NKL (IL-2 2.5 ng/mL) [22] | 0
SNK-6 (IL-2 2.5 ng/mL) [23] | 0
YT (IL-2 2.5 ng/mL) [24] | 0
[15] | 0
[25] | 0
[26] | 0
[27] | 0
[28] | 0

O=c1[nH]cc(F)c(=O)[nH]1 [Fluorouracil] (max concentration tested 10000 nM)
percent inhibition of viability [%]
Conditions | 1 nM | 10 nM | 100 nM | 1000 nM | 10000 nM
DERL-7 (IL-2 2.5 ng/mL) [2] | -1.71 | -2.2 | -3.46 | 5.05 | 60.8
IMC-1 (IL-2 20 ng/mL) [3] | -7.45 | 1.88 | -3.48 | 4.56 | 12.9
KAI3 (IL-2 2.5 ng/mL) [4] | -0.14 | 3.84 | 8.25 | 42.8 | 49.3
KHYG-1 (IL-2 2.5 ng/mL) [5] | -4.58 | -7.58 | -3.77 | 12.7 | 86.4
NK-92 (IL-2 2.5 ng/mL) [6] | -11.2 | 1.29 | 5.09 | 42.9 | 60
NK-YS (IL-2 2.5 ng/mL) [7] | -1.75 | 0.12 | 4.17 | 40.3 | 84
NKL (IL-2 2.5 ng/mL) [8] | -15.3 | -7.36 | -0.39 | 28.1 | 74.8
SNK-6 (IL-2 2.5 ng/mL) [9] | -7.99 | -14.1 | -22.8 | 34.2 | 86.7
YT (IL-2 2.5 ng/mL) [10] | -7.37 | -4.14 | -1.13 | 39.8 | 64
[1] | -6.1 | -8.86 | -5.42 | 2.62 | 38.1
[11] | -1.01 | 15.2 | 8.55 | 0.37 | 11.4
[12] | 2.96 | 13.7 | 16.1 | 21.9 | 19
[13] | 1.43 | 2.09 | 10.1 | 5 | 7.54
[14] | -3.48 | 2.62 | 7.34 | 0.65 | 7.07

Conditions | drug sensitivity score
DERL-7 (IL-2 2.5 ng/mL) [16] | 4.1
IMC-1 (IL-2 20 ng/mL) [17] | 0.36
KAI3 (IL-2 2.5 ng/mL) [18] | 8.77
KHYG-1 (IL-2 2.5 ng/mL) [19] | 6.91
NK-92 (IL-2 2.5 ng/mL) [20] | 8.76
NK-YS (IL-2 2.5 ng/mL) [21] | 9.4
NKL (IL-2 2.5 ng/mL) [22] | 8.01
SNK-6 (IL-2 2.5 ng/mL) [23] | 9.4
YT (IL-2 2.5 ng/mL) [24] | 8.28
[15] | 2.24
[25] | 0
[26] | 5.42
[27] | 0
[28] | 0

Reference: the supplement of paper PMC5908809
